From a melting point compilation (Tetko et al.; mined from patent text by program, amines drawn as free bases though some values may be those of a salt)

| SMILES | melting point |
| --- | --- |
| CSc1ncc2cc(-c3c(Cl)cccc3Cl)c(N)nc2n1 | 250 to 253 °C |
| NC1=C(N=O)C(=O)N2CCN=C2N1Cc1ccc(Cl)cc1 | 238 to 241 °C |
| CS(=O)(=O)Nc1cc(C(c2cc(F)ccc2F)S(=O)(=O)c2ccc(Cl)cn2)c(Cl)cn1 (centres undefined) | 214 to 216 °C |
| COc1ccc(COc2cccc(C(=O)Nc3ccc(S(C)(=O)=O)cc3)c2)cc1 | 173 to 174 °C |
| CCCS(=O)c1cccc(-c2nc(=O)c3ccccc3s2)n1 (centres undefined) | 175 °C |
| N#CC(C(=O)Nc1cccc(Br)c1)C(=O)c1nn(-c2ccccc2)c2c1Cc1ccccc1-2 (centres undefined) | 289 to 290 °C |
| CCc1nc(Cl)nc(N)c1C#N | 226 °C |
| CC1(C(=O)C(=Cc2ccc(Cl)cc2Cl)n2cncn2)COCOC1 | 133 to 135 °C |
| CCOC(=O)c1c(C)c(C(=O)c2ccc(SC)n2C)n2c1C(C(=O)OCC)CC2 (centres undefined) | 142 to 143 °C |
| COCCOc1ccc(CN2C(=O)C3(COc4cc5c(cc43)OCCO5)c3ccccc32)cc1 (centres undefined) | 124 to 125 °C |
| COCCOc1ccc(CCCO)c(Oc2ncc(Cl)cc2Cl)c1 | 83.9 to 84.5 °C |
| CCOc1cc2c(c(OC(C)=O)c1OCC)=NC(=O)C(=O)N=2 | 321 to 322 °C |
| COc1cc(-c2ccc(O)c(C34CC5CC(CC(C5)C3)C4)c2)cc(C=C2SC(N3CCOCC3)=NC2=O)c1O | 310 to 312 °C |
| COc1cc(I)c(C(C)=NOCc2ccc([N+](=O)[O-])cc2)cc1O | 121 to 127 °C |
| CC(C)(Cl)C(CNC(=O)c1ccc([N+](=O)[O-])o1)N=O (centres undefined) | 110 to 112 °C |
| Nc1ncnc2c1c(I)cn2C1CC(O)C(CO)O1 (centres undefined) | 194 °C |
| Cc1ncn(C(=O)Nc2ccccc2)c1Cl | 112 to 114 °C |
| CCCCNC(=O)Cc1cc(=O)oc2cc(OCc3cccc(Cl)c3)ccc12 | 112 to 113 °C |
| N#Cc1ccc(C2NCCc3ccccc32)cc1 (racemic) | 114 to 115 °C |
| O=C(c1ccc(O)cc1)c1ccc(Cl)cc1Cl | 140 °C |
| O=C1NC(=O)c2cc(C(c3ccc4c(c3)C(=O)NC4=O)(C(F)(F)F)C(F)(F)F)ccc21 | 322 °C |
| CC12CC(=O)C3C(CCC4CC(O)CCC43C)C1CCC2C(=O)COc1ccc(N)cc1 (centres undefined) | 179 to 180 °C |
| COC(=O)/C(=C/C=C/c1cn(C(C)=O)c2ccccc12)OC | 107 to 108 °C |
| COc1c(C(C)(C)C)cc(C(C)=O)c(O)c1Br | 69 to 71 °C |
| CC(=O)N1CCSc2cccc(C)c2C1 | 71 to 73 °C |

| SMILES | melting point |
| --- | --- |
| Brc1ccc2cc(SN3CCN(c4ccncc4)CC3)ccc2c1 | 200 to 202 °C |
| COC(=O)CCCCc1cc2cc(Cl)ccc2n1S(=O)(=O)c1ccccc1 | 95 to 98 °C |
| COC(=NS(=O)(=O)c1ccccc1Cl)Nc1nc(C)nc(OC)n1 | 156 to 157 °C |
| Cc1cc(O)c(C)c(O)c1C#N | 162 to 163 °C |
| COCCNC(=O)c1ccc(C)c(-n2c(C)cc(OCc3ccc(F)cc3CNC(=O)Nc3cc(C(C)(C)C)nn3-c3ccc(Cl)c(O)c3)c(Cl)c2=O)c1 | 186 to 187 °C |
| CCCCCCCCCN1C(=O)C=CC1=O | 45 to 47 °C |
| O=C(C=Cc1ccc(F)cc1)C(c1ccccc1)c1ccccc1 | 122 to 124 °C |
| CC1CNC(CC(c2ccccc2)c2ccccc2)=N1 (centres undefined) | 55 to 57 °C |
| Cn1c2cc(Cl)ccc2c2c(C(=O)N3CCCC3)nc(-c3ccncc3)nc21 | 256 to 258 °C |
| CC(C)(C)C(O)(COc1ccc(F)cc1)C(Cc1ccc(Cl)cc1)n1cncn1 (centres undefined) | 104 to 105 °C |
| O=C(/C=C/C=C/c1ccccc1)NCCCOc1ccc(CC(=O)NO)cc1 | 198 to 201 °C |
| COc1cccc(-c2cn3cc(C(=O)NCCCCCCC(=O)NO)sc3n2)c1 | 209 to 211 °C |
| Fc1ccc(OC2CCN(CCc3c[nH]c4ccc(OCc5ccccc5)cc34)CC2)cc1 | 134 to 136 °C |
| Cc1ccc(C(=O)C2=C(O)C(=O)N(c3ncc(S(=O)(=O)N4CCOCC4)s3)C2c2ccc(C(C)C)cc2)cc1 (centres undefined) | 247 to 252 °C |
| COC12CC(CCOC(=O)c3cncc(Br)c3)CN(C)C1Cc1cn(C)c3cccc2c13 (centres undefined) | 187 to 190 °C |
| CC(C)(C)OC(=O)N1CCN(c2ccc(O)c(C=O)c2)CC1 | 84 to 86 °C |
| C#CCn1c(=O)n(C2CCN(C(=O)OCC)CC2)c2ccc(Cl)cc21 | 126 °C |
| CC(C)[C@@H]1C[C@@H]([C@H](CC2CCCCC2)NC(=O)OC(C)(C)C)OC1=O | 114 to 116 °C |
| NC(=O)c1c(N)cccc1OCCOc1ccccc1 | 127 to 130 °C |
| CCCc1c2oc(C#N)cc(=O)c2cc2c(=O)cc(C(=O)OCC)oc12 | 182 to 184 °C |
| O=C(Nc1ccccn1)C(CC1CCCC1)c1ccc(-c2cccc3ccccc23)cc1 (centres undefined) | 73 to 77 °C |
| CCCC(C)(c1ccc(Oc2ccc([N+](=O)[O-])cc2)cc1)c1ccc(Oc2ccc([N+](=O)[O-])cc2)cc1 | 151 to 152 °C |
| OCC1OC(n2cnc3c(NCCc4csc5ccc(Cl)cc45)ncnc32)C(O)C1O (centres undefined) | 167 to 169 °C |
| O=C(CCC(=O)c1ccccc1)NCc1ccccc1 | 110 to 112 °C |
| Nc1nc(N)c2c(n1)CCC(Cc1cc(Cl)cc(Cl)c1)C2 (centres undefined) | > 200 °C |

| SMILES | melting point |
| --- | --- |
| CN(C)c1nc2cc(NC(=O)c3c(C(=O)O)cnn3C)ccn2n1 | > 250 °C |
| c1cc(-c2cnc(-c3cccc(-c4cnco4)n3)o2)cc(-c2cnc(-c3cccc(-c4cnco4)n3)o2)c1 | > 250 °C |
| COc1ccc(C(NC(=O)C(C)c2ccccc2)c2cccc(Nc3c(N)c(=O)c3=O)c2)cc1 (centres undefined) | 206 to 209 °C |
| CCOC(=O)c1sc(N)nc1-c1ccc(F)cc1 | 205 to 208 °C |
| O=C1OCCN1CCN1CCN(C2Cc3cc(F)ccc3Sc3ccccc32)CC1 (centres undefined) | 158 to 159 °C |
| CCOc1ccc(C(O)(C(F)(F)F)C(F)(F)Cl)cc1 (centres undefined) | 84 to 86 °C |
| Nc1nc2cc3c(cc2[nH]1)OCO3 | 230 to 243 °C |
| COC(C)=CC(=O)Nc1cccc(SC)c1 | 70 to 71 °C |
| COC(=O)NC(=O)c1c(Br)ccc2c(C(F)(F)F)c(OC)ccc12 | 180 to 182 °C |
| COc1ccc(-c2nc(C(C)C)sc2-c2ccc(OC)cc2)cc1 | 61 to 65 °C |
| CNCC(O)C(Oc1ccc2c(c1)OCO2)c1ccccc1 (centres undefined) | 100 to 122 °C |
| Cc1cc(-c2cccc(C3=Nc4ccc(-c5ccccc5F)cc4NC(=O)C3)c2)on1 | 222 to 224 °C |
| CCCC(Cc1ccc(OCCNC(=O)c2ccc(-c3ccccn3)cc2)cc1)C(=O)O (centres undefined) | 81 to 82.5 °C |
| CC(=S)NCC1CN(c2ccc3c(c2)CC(C(C)(C)C)N3C=O)C(=O)O1 (centres undefined) | 219 to 221 °C |
| Cc1nnc2n1-c1sc(CCCN3CCOCC3)cc1C(c1ccccc1Cl)NC2 (centres undefined) | 135 to 138 °C |
| Cc1cc(NS(=O)(=O)c2ccccc2)cnc1CCCC(=O)O | 169 to 179 °C |
| CC1C(=O)NCC1C(N)=O (centres undefined) | 169 to 171 °C |
| O=C(Nc1ccc2cc(CN3CCCCC3)ccc2c1)N1CCC(c2ccc(Cl)cc2)CC1 | 231 to 232 °C |
| CCCSC1NC(c2ccc(Cl)cc2)=NN(CC(F)(F)F)C1=O (centres undefined) | 99 to 100 °C |
| O=S1(=O)NC2CCCN2c2ccc(Oc3ccc(Cc4nnn[nH]4)cc3)cc21 (centres undefined) | 209 to 212 °C |
| Cn1ncc(C=O)c1-c1ccc([N+](=O)[O-])o1 | 130 °C |
| Cc1nn(CCCCO)c(-c2ccc(F)cc2)c1-c1ccc2c(c1)NC(=O)CO2 | 194 to 196 °C |
| O=C(O)C(O)c1csc2ccccc12 (centres undefined) | 89 to 91 °C |
| CC(C)n1c(=O)n(C(=O)NCC2CCN(CC3(C(=O)O)CCC3)CC2)c2ccccc21 | 173 °C |
| COc1ccc(-c2nc(CNC(=O)CCC(=O)O)sc2-c2ccc(OC)cc2)cc1 | 110 to 116 °C |

| SMILES | melting point |
| --- | --- |
| CC(=O)OCCOc1ccc(C=Cc2ccc(S(C)(=O)=O)cc2)cc1 | 175 to 177 °C |
| CC1(C)COc2ccc(C(=O)O)cc21 | 171 to 173 °C |
| COC(=O)C(c1ccc(O)cc1)N1CC(N2C(=O)c3ccccc3C2=O)C1=O (centres undefined) | 203 to 204 °C |
| CCN(CC)OC(=O)c1cc(C(C)(C)C)c(O)c(C(C)(C)C)c1 | 129 to 137 °C |
| Cc1ccc(C(=O)Nc2ccccc2C(CCC(=O)O)=NO)cc1 | 165 to 168 °C |
| COc1ccc(C2(CNC(=S)NCC(C)C)OCCO2)cc1 | 96 °C |
| C[C@@H](NC(=O)C1(C)CC(F)(F)C1)c1ccc(Br)cc1 | 120 to 122 °C |
| C/C(=N\O)[C@H]1CC[C@H]2[C@@H]3CCC4=CC(=O)CC[C@]4(C)[C@H]3CC[C@]12C | 220 to 221 °C |
| C#CCCCON1Sc2cccc3cccc1c23 | 56 to 59 °C |
| CCCN(CCC)C(Cc1cccc(OC)c1N(C(C)=O)C(C)=O)(C(=O)OCC)C(=O)OCC | 72 to 75 °C |
| CCNC(=O)[C@@H]1C[C@H](SCc2ccc(OC)cc2)CN1CC | 60 to 61 °C |
| CCN1c2ncccc2C(=O)Nc2c(C)cc(N3CCC[C@H]3CO)nc21 | 238 to 240 °C |
| CCOC(=O)c1c[nH]c(Br)c1-c1ccc(Cl)cc1 | 161 to 164 °C |
| CCCOCCOc1ccc(Oc2ccc3c(c2)C=C(C(=O)Nc2ccc(CN(C)C4CCOCC4)cc2)CCS3(=O)=O)cc1OCC | 159 to 160 °C |
| Cc1cc(OCc2ccccc2)cc(C)c1NC(=O)CCl | 165 °C |
| Cc1c(C(=O)Nc2ccc(N3CCC(N4CCOCC4)CC3)c(C#N)c2)cnn1-c1cccc(Cl)c1 | 210 °C |
| Nc1ncc(-c2cccc3ccccc23)c(N)n1 | 171 to 173 °C |
| CC(=NOCc1cc(C(F)(F)F)ccc1C(F)(F)F)c1cc(Cl)ccc1NS(=O)(=O)C(F)(F)F | 73 to 75 °C |
| CC(C)(C)OC(=O)N1CC(CCl)c2c1ccc1cc(C#N)ccc21 (centres undefined) | 171 to 172 °C |
| Cc1cccc(NC(=O)NC2N=C(c3ccccc3)c3ccsc3N(C)C2=O)c1 (centres undefined) | 128 to 130 °C |
| CCOc1cc(N(CC)CC)ccc1C=O | 58 to 59 °C |
| CCCCOc1cc(C(=O)O)cc(N)c1C(=O)c1ccc(Cl)cc1 | 286 to 288 °C |
| N#CC1(Nc2ccccc2)CCN([C@H]2CCc3ccccc32)CC1 | 157 to 160 °C |
| Cc1c(Cl)csc1-c1nc(-c2c(F)cccc2Cl)nn1C | 117 to 118 °C |
